{"source": "patent US7312237B2", "about": "“Combination of epothilone analogs and chemotherapeutic agents for the treatment of prolilferative diseases” (Bristol-Myers Squibb Co., priority 2001, dated 2007)", "assay": "In vivo antitumor testing, Pat-7 in nude mice", "settings": "nude, mouse, in vivo", "description": "All tumor implants for efficacy testing were subcutaneous (sc).\nThe MTD was frequently equivalent to OD. When death occurs, the day of death was recorded.\nAnd, Log cell kill=T−C÷(3.32×TVDT)\nThis tumor model was established from a tumor biopsy of an ovarian cancer patient (Pat-7), who was initially responsive to TAXOL® treatment but ultimately developed resistance to it following nine courses of monotherapy with TAXOL®. Prior to treatment with TAXOL®, Pat-7 also received numerous other chemotherapeutic agents including carboplatin, cytoxan, VP-16, ifosfamide and altretamine. Tumor biopsy was taken following development of TAXOL® resistance.", "note": "Like-named read-outs stand apart in the source and are kept apart here."}
{"compound": "C/C(=C\\c1csc(C)n1)[C@@H]1C[C@@H]2O[C@]2(C)CCC[C@H](C)[C@H](O)[C@@H](C)C(=O)C(C)(C)[C@@H](O)CC(=O)N1", "note": "(relative stereo) [Compound 1, [1S-[1R*,3R*(E),7R*,10S*,11R*,12R*,16S*]]-7,11-dihydroxy-8,8,10,12,16-pentamethyl-3-[1-methyl-2-(2-methyl-4-thiazolyl)ethenyl]-4-aza-17-oxabicyclo[14.1.0] heptadecane-5,9-dione]", "values": [{"measurement": "MTD", "setting": "iv, Compound 1 IV, q2dx5, read-out: OD (optimal dose or maximum tolerated dose, MTD)", "result": 4.8, "unit": "mg/kg"}, {"measurement": "MTD", "setting": "iv, Compound 1 IV, q4dx3, read-out: OD (optimal dose or MTD)", "result": 15, "unit": "mg/kg"}, {"measurement": "MTD", "setting": "po, Compound 1 PO, q2dx5, read-out: OD (optimal dose or MTD)", "result": 60, "unit": "mg/kg"}]}
